# In PubChem BioAssay AID1996:
# Conditions: buffer; pH 7.4; 200.0 µM
row,Compound,solubility kinetic
1,Cc1ccc(NC(=O)CCN2CCC(C)CC2)cc1.Cl,> 44.5 µg/mL
2,Cc1ccc(C(=O)Nc2ccc(C(=O)NCC3CCCO3)cc2)cc1 (stereo unspecified),3.5 µg/mL
3,CN1CCC(CNC(=O)Nc2ccccc2)(c2ccccc2)CC1,> 48.5 µg/mL
4,CCC(CC)NC(=O)C1CC(=O)N(CCc2ccc(F)cc2)C1 (stereo unspecified),> 48.1 µg/mL
5,CCCCc1ccc(NC2=NCCCS2)cc1,26.4 µg/mL
6,Cc1ccc(Nc2c([N+](=O)[O-])ccc3nonc23)c(C)c1,< 0.2 µg/mL
7,COc1ccccc1/C=C/C(=O)NC1CC2CCC1C2 (stereo unspecified),2 µg/mL
8,Cl.Clc1ccc(Cn2c(CN3CCCC3)nc3ccccc32)cc1,49.5 µg/mL
9,CCCCCCCCCCCCN1C(=O)CSC1c1cccnc1 (stereo unspecified),< 0.4 µg/mL
10,CC(=O)Nc1ccc(NS(=O)(=O)c2ccc3c(c2)oc(=O)n3C)cc1,> 54.2 µg/mL
11,CCOc1ccc(CN2C(=O)c3ccccc3C2=O)cc1C(=O)O,> 48.8 µg/mL
12,O=C(Nc1nnc(-c2ccccc2)o1)c1cccc(S(=O)(=O)N2CCOCC2)c1,> 62.2 µg/mL
13,Cc1nc(CC(=O)c2ccc(O)c(C)c2O)cs1,36.7 µg/mL
14,OCc1ccccc1OCCCOc1cccc2cccnc12,> 46.4 µg/mL
15,COc1ccc(Nc2cc(C)nc3c(C)cccc23)cc1OC,> 46.3 µg/mL
16,Cc1cc(Br)ccc1NC(=O)CNC(=O)c1cnn(C)c1,> 52.7 µg/mL
17,COc1ccc2oc(C(=O)NCc3ccco3)c(C)c2c1,31.6 µg/mL
18,Nc1c(N(CCCO)C(=O)C2CCCCC2)c(=O)[nH]c(=O)n1Cc1ccccc1,> 60.1 µg/mL
19,CN1C(=O)CSC1=Nc1ccc(Br)cc1,33.3 µg/mL
20,CCN(CC)c1ccc(C=Nc2ccc(C)cc2C)c(O)c1,6.4 µg/mL
21,O=S(=O)(c1ccc(F)cc1)N1CCCC1,> 34.4 µg/mL
22,Nc1ccc(S(=O)(=O)NC(Cc2ccccc2)C(=O)O)cc1 (stereo unspecified),32.9 µg/mL
23,CC(Sc1nccn1C)C(=O)Nc1ccccc1 (stereo unspecified),> 39.2 µg/mL
24,COc1ccc2c(c1)[C@@]13CCC=C[C@H]1[C@@H](C2)NCC3.Cl,> 43.8 µg/mL
25,CCN(CC)C(=O)C12CC3CC(CC(Br)(C3)C1)C2,32.7 µg/mL

row,Compound,solubility kinetic
1,COc1ccc2cc(C(C)C(=O)N3CCC(C)CC3)ccc2c1 (stereo unspecified),18.8 µg/mL
2,CCn1cc(C2CC(=O)NC2=O)c2ccccc21 (stereo unspecified),> 36.3 µg/mL
3,Cc1ccnc(N2CCC(C(=O)Nc3ccc4c(c3)OCCO4)CC2)n1,13.6 µg/mL
4,CCOc1ccccc1NC(=S)N1CCCCCC1,> 41.8 µg/mL
5,O=C(O)c1ccc2c(c1)C(=O)N(c1cccc3ccccc13)C2=O,> 47.6 µg/mL
6,COc1ccccc1OCCOCCN1CCCC1,38.2 µg/mL
7,Cc1cc(C(=O)COC(=O)c2cnccn2)c(C)n1-c1ccc(Br)cc1,4.1 µg/mL
8,O=C(NCc1ccc2c(c1)OCO2)c1cc([N+](=O)[O-])ccc1N1CCOCC1,> 57.8 µg/mL
9,CC(NC(=O)Cn1cccc1)c1ccccc1 (stereo unspecified),> 34.2 µg/mL
10,COc1cccc(NC(=O)NCc2c(-c3ccccc3)noc2C)c1,2.4 µg/mL
11,O=C(CN1CCOCC1)Nc1cc(C(F)(F)F)ccc1Cl,39.2 µg/mL
12,O=C(CN1CCOCC1)Nc1ccc(Cl)cn1,> 38.4 µg/mL
13,Cc1nc2sccc2c(=O)n1N,> 27.2 µg/mL
14,Cc1ccc(S(=O)(=O)N2CCN(C)CC2)c2nsnc12,> 46.9 µg/mL
15,O=C(CSc1ncccn1)Nc1cccc(S(=O)(=O)N2CCOCC2)c1,> 59.2 µg/mL
16,O=C1C(Nc2ccccc2)=CC(c2ccc(O)cc2)N1c1ccccc1 (stereo unspecified),2 µg/mL
17,O=C(Nc1ccc(NC(=O)C2CC2)nc1)c1ccccc1F,8.1 µg/mL
18,O=C(NC1CCSc2ccccc21)c1ccccc1Cl (stereo unspecified),9.3 µg/mL
19,CCOc1ccc(S(=O)(=O)N2CCN(c3ncccn3)CC2)cc1,2.7 µg/mL
20,Cc1ccc(NC(=O)CCCc2c[nH]c3ccccc23)nc1,3.8 µg/mL
21,COc1cccc(C=O)c1OCCCOc1cccc2cccnc12,34.9 µg/mL
22,Cc1ccc(C(=O)NCC(C)NC(=O)c2ccc(C)c([N+](=O)[O-])c2)cc1[N+](=O)[O-] (stereo unspecified),1.8 µg/mL
23,CC(Sc1nc2ncc(Cl)cc2[nH]1)C(=O)Nc1ccc(C(N)=O)cc1 (stereo unspecified),9.3 µg/mL
24,COc1ccc(C(=O)CSc2ncnc3nc[nH]c23)cc1,8 µg/mL
25,Cc1cc(C(=O)OCC(=O)NC(C)c2ccccc2)c(C)o1 (stereo unspecified),17.7 µg/mL

row,Compound,solubility kinetic
1,Cc1nc(C)c(C(=O)OCC(=O)NCc2ccccc2Cl)s1,26.4 µg/mL
2,O=C1CN(C(=O)COC(=O)Cc2ccccc2)c2ccccc2N1,> 48.7 µg/mL
3,Cc1ccccc1NC(=O)C(C)SCc1ccccc1 (stereo unspecified),> 42.8 µg/mL
4,O=C(Cc1ccccc1F)N1CCN(CC(=O)N2CCCC2)CC1,> 50 µg/mL
5,CC(C)(C)C(=O)OCc1nc(-c2ccc(O)c(O)c2)cs1,39.5 µg/mL
6,CCN(c1ccccc1)c1cc2ccccc2c(=O)[nH]1,23.9 µg/mL
7,O=C(Cc1ccc(Br)cc1)NCCc1ccccc1,7.5 µg/mL
8,CC(C)(C)CC(C)(C)NC(=O)/C=C/C(=O)O,29.1 µg/mL
9,CCO/N=C/C1=C(O)C(C(=O)OC)C(C)(C)CC1=O (stereo unspecified),> 40.4 µg/mL
10,O=C(COC(=O)Cn1cnc2ccccc2c1=O)Nc1ccccc1OC(F)F,15.8 µg/mL
11,C=CCn1c(SCC(N)=O)nc2sc3c(c2c1=O)CCC3,38.6 µg/mL
12,Fc1ccc(NC(=S)N2CCc3ccccc32)cc1,3.1 µg/mL
13,Cc1ccccc1COc1ccc(/C=C(\C#N)C(N)=O)cc1,< 0.3 µg/mL
14,O=C(NCCCSc1ccccc1)c1ccc(=O)[nH]c1,> 43.3 µg/mL
15,CCCC(=O)Nc1nnc(SCC(=O)N2CCCCC2)s1,> 49.3 µg/mL
16,COCc1cc(=O)[nH]c(/N=C(\N)Nc2c(F)cccc2F)n1,40.6 µg/mL
17,CN(C)C(=O)c1cc(C(=O)c2ccccc2)c[nH]1,> 36.3 µg/mL
18,COc1ccc(C2=CSC3=NCCN23)cc1Cl,38.4 µg/mL
19,CC(NC(=O)c1ccccc1)C(=O)N/N=C/c1ccccc1 (stereo unspecified),> 44.3 µg/mL
20,COCCCN(C(=S)Nc1ccc(OC)cc1)C(C)c1ccncc1 (stereo unspecified),> 53.9 µg/mL
21,CC(C)C(=O)Nc1c(-c2ccccc2)c(=O)c2ccccc2n1C,9.2 µg/mL
22,O=C(NC1=NCCS1)C1CC(=O)N(c2ccc(Cl)cc2)C1 (stereo unspecified),> 48.6 µg/mL
23,CC1CCc2c(sc(NC(=O)c3cccn3C)c2C(N)=O)C1 (stereo unspecified),2.9 µg/mL
24,OC(CN1CCN(c2ccccc2F)CC1)c1ccc(F)cc1 (stereo unspecified),> 47.8 µg/mL
25,Cc1ccc(Nc2nc(-c3cccs3)cs2)nc1,0.8 µg/mL

row,Compound,solubility kinetic
1,Cc1nc2ccccc2c(=O)n1Cc1ccc([N+](=O)[O-])cc1,> 44.3 µg/mL
2,O=[N+]([O-])c1ccc(CN2C=NS(=O)(=O)c3ccccc32)cc1,> 47.6 µg/mL
3,O=C(CCC1CCCN(C(=O)c2ccco2)C1)NCc1ccccc1F (stereo unspecified),> 53.8 µg/mL
4,CCC1Sc2ccccc2N(CC(=O)NC2CC2)C1=O (stereo unspecified),39.6 µg/mL
5,CC(=O)c1sc2nc(-c3ccco3)ccc2c1N,6 µg/mL
6,O=C(CSc1cccc[n+]1[O-])N1CCc2ccccc21,> 43 µg/mL
7,CNC(=O)COc1ccc(Nc2nnc(C)c3ccccc23)cc1.Cl,> 53.8 µg/mL
8,Cc1cc(C)nc(SCC(=O)Nc2nccs2)n1,> 42.1 µg/mL
9,O=C(COc1ccc(Cl)cc1)NCc1ccncc1,> 41.5 µg/mL
10,Cc1cccc(NC(=O)CCC(=O)c2cccs2)n1,> 41.2 µg/mL
11,CCN1CCC(N2CCN(c3ccc(Cl)cc3)CC2)CC1,15.7 µg/mL
12,N#CCCN(CCC#N)C(=S)NC1CC2C=CC1C2 (stereo unspecified),> 41.2 µg/mL
13,CC(C)C(OC(=O)c1cccs1)C(=O)NCc1ccc(F)cc1 (stereo unspecified),> 50.3 µg/mL
14,CCOC(=O)c1cccc(C(=O)Nc2nc3ccc(OC)cc3s2)n1,< 0.3 µg/mL
15,O=C(/C=C/c1cccs1)NC(=S)Nc1ccccc1,1.3 µg/mL
16,CN(C)/C=C1\SC(=S)N(c2ccc(F)cc2)C1=O,12.6 µg/mL
17,Cc1cc(SCC(=O)NC2CCCCC2)nc2ccccc12,1.2 µg/mL
18,Cc1cc(SCC#N)nc2ccccc12,14.6 µg/mL
19,Brc1ccccc1OCCCOc1cccc2cccnc12,1.5 µg/mL
20,O=C1C(Cl)=C(NCCN2CCOCC2)C(=O)c2ccccc21,> 48.1 µg/mL
21,COc1ccc(CNC(=O)CN(C)S(=O)(=O)c2ccccc2)cc1,> 52.3 µg/mL
22,COc1ccc(OCC(O)CNC2CCCC2)cc1.Cl (stereo unspecified),42.6 µg/mL
23,C=CCN(CC=C)C(=S)Nc1ccc(OC)c(OC)c1,> 43.9 µg/mL
24,CCOCCCNC(=O)c1ccc(C2SCC(=O)N2Cc2ccccc2)cc1 (stereo unspecified),> 59.8 µg/mL
25,CC(C)C(=O)NCc1cc(-c2ccccc2)no1,32.5 µg/mL

row,Compound,solubility kinetic
1,CCCOc1ccc(C(=O)NCC2OCCc3ccccc32)cc1OC (stereo unspecified),4.7 µg/mL
2,COc1ccc(S(=O)(=O)NCC(=O)NCCc2ccc(OC)c(OC)c2)cc1,> 61.3 µg/mL
3,COc1ccc(CNC(=O)C2CCCC2)cc1,28.6 µg/mL
4,Cc1ccnc(NC(=O)c2ccco2)n1,> 30.5 µg/mL
5,COc1ccc(NC(=O)N2CCCC2C(=O)NC2CCCC2)cc1 (stereo unspecified),> 49.7 µg/mL
6,CCN(CC)CCNC(=O)c1ccc(-n2c(C)cc3c2CCCC3=O)cc1,33.7 µg/mL
7,O=C(NCc1ccccc1)N1CCN(c2ccccc2)CC1,16.2 µg/mL
8,COc1ccc2[nH]c3c(=O)n(Cc4ccncc4)cnc3c2c1,7.3 µg/mL
9,Nc1nccnc1C(=O)OCC(=O)NC1CCCc2ccccc21 (stereo unspecified),44.5 µg/mL
10,CCc1ccc(C(=O)NC(C(=O)NCC2CCCO2)C(C)C)cc1 (stereo unspecified),> 49.9 µg/mL
11,Cc1cc(Oc2ncccc2[N+](=O)[O-])c2cc(Cl)ccc2n1,< 0.2 µg/mL
12,Cc1cccc(C)c1OC(=O)CN1C(=O)c2ccccc2C1=O,0.9 µg/mL
13,COc1ccc(NC(=O)C2CC(c3ccc(Cl)cc3)=NO2)cc1 (stereo unspecified),< 0.4 µg/mL
14,Cc1ccc(-c2csc3ncn(CC(N)=O)c(=O)c23)cc1C,> 47 µg/mL
15,COc1cc(-c2nnc(SCC(=O)Nc3ccc(C(=O)O)cc3)o2)cc(OC)c1OC,> 66.8 µg/mL
16,O=C(CNC(=O)c1ccc(Cl)cc1)c1ccc(Br)cc1,< 0.8 µg/mL
17,CC12CC3(C)CC(C)(C1)CC(C(=O)NC(=S)N1CCCC1)(C2)C3,< 0.4 µg/mL
18,S=c1[nH]c2cc(Cl)c3cccnc3c2o1,> 35.5 µg/mL
19,O=C(O)c1ccc(N2C(=O)CSC2c2cccc([N+](=O)[O-])c2)cc1 (stereo unspecified),> 51.7 µg/mL
20,Cc1nc(C)c(C(=O)OCC(=O)N(C)c2ccccc2)s1,> 45.7 µg/mL
21,C1CCCN(C2CCNCC2)CC1.Cl,> 38.3 µg/mL
